Source: patent US20230172920A1, “DOSING REGIMEN FOR TREATING A DISEASE MODULATED BY CSF-1R” (Novartis AG, priority 2020, published 2023)
Where two headings read alike, the source gives them in different places.

Assays:
[1] = clinical; set-up: species or system human; conditions: in vivo
Procedure: On days that PK samples are obtained, the patient should take BLZ945 during the clinic visit after the pre-dose PK samples and prior to post-dose PK samples, when instructed by the study staff. Patients should take BLZ945 on an empty stomach (i.e. fast from food and drink, except water) at least 1 hour before or 2 hours after a meal. Each dose should be taken with a glass of water. Patients should be instructed to swallow whole capsules and not to chew or open them.
The preliminary pharmacokinetics (PK) of single dose and multiple doses of oral BLZ945 when administered alone and in combination with spartalizumab has been assessed in the ongoing study CBLZ945X2101.

[2] = test system: MC38 syngeneic mouse model; test: MC38 syngeneic mouse model, tumor growth; assay type: in vivo, C57BL/6N mice; conditions: repeat with suboptimal anti-PD-1 dose (5 mg/kg); BLZ945 4 days on/3 days off
Procedure: In another set of experiments using the MC38 syngeneic mouse model in C57BL/6N mice two different schedules of BLZ945 were compared for efficacy (FIG. 3) using once weekly dosing of BLZ945 and 4 days on/3 days off dosing of BLZ945 alone and in combination with anti-PD-1. […] On day 14 post treatment start, there was a trend of tumor growth inhibition, corresponding to a % T/C vs. control of 28%.
Doses of 200 mg/kg BLZ945 and 10 mg/kg anti-PD-1 were given on the schedules indicated and tumor volumes measured on day 14 after study initiation. Statistical significance was calculated using one-way ANOVA with post hoc Dunnett's test for comparison of treatment versus control group.
Efficacy testing was repeated with a suboptimal dose of anti-PD-1 (5 mg/kg) in order to test for an additive effect of BLZ945 to be observed when given in combination.

[3] = AST/ALT elevation across single agent dose groups (clinical data, CTCAE); assay type: in vivo, human
Procedure: A comparison of AST and ALT elevation across single agent dose groups for the compound of Formula (I) was performed for the once per week (Q1WV) dosing regimen and the 4 days on/10 days off dosing regimen over a range of dosages. FIGS. 6 and 7 show the AST and ALT elevations, respectively. The Common Terminology Criteria for Adverse Events (CTCAE) was used to evaluate AST and ALT levels.

[4] = test system: microglia; test: CNS microglia clearance in mice, Iba1/Aif-1 staining of cortex (RD-2019-00100); assay type: in vivo; conditions: for microglial depletion / microglial reduction: 5 consecutive days; for microglia brain repopulation: 169 mg/kg qd 5 days; for microglia depleted in the cortex: 169 mg/kg qd
Procedure: (§1) Several studies were performed to understand PK/PD relationships for CNS microglia clearance in mice. In the first study (RD-2019-00100) mice were treated once daily (qd) for between 1 and 5 consecutive days with a dose of 169 mg/kg BLZ945. Additionally, two dose groups received 169 mg/kg BLZ945 for 5 consecutive days followed by either 3 or 7 days of drug withdrawal (washout). […] Pharmacokinetic analysis was performed on blood and brain samples taken from each group at 3 hours after the final dose on the indicated necropsy day. […] Exposures dropped by more than 1000-fold following the washout period (FIG. 8 B).
(§2) FIG. 8: (A) Microglial depletion in the cortex, as assessed by Iba1/Aif-1 immunohistological staining at necropsy. Sections were analyzed for total number of microglia cell bodies per sample area. Values are group means±SD (n=3). (B) Exposure of BLZ945 in blood and brain 3 hours after the last dose on the day of necropsy. Values are group means (n=3).
(§3) In a follow-up study (RD-2019-00100), mice were treated with BLZ945 for 5 consecutive days with a range of doses from 7 to 169 mg/kg. The two lowest doses of 7 mg/kg and 20 mg/kg were ineffective for microglial depletion. […] Here the ratio of brain to blood exposures was approximately 30% at the four lowest doses and approximately 55% at the highest dose (FIG. 9 B).
(§4) FIG. 9: Dose-dependent reduction of microglia. (A) Mice were treated for 5 consecutive days with BLZ945 at the indicated doses. Samples were analyzed histologically by Iba1/Aif-1 staining and quantified for total microglia cell bodies per sample area. Data are group means±SD (n=3). (B) Exposure of BLZ945 in blood and brain following 5 consecutive days of dosing at multiple doses. Values are group means±SD (n=3).

[5] = Blood and brain exposure in mice (RD-2019-00100); assay type: in vivo; conditions: for Kp at 5 days: read-out: ratio of brain to blood exposures
Procedure: as §1, §2, §3, §4

[6] = test system: microglia; test: Microglial depletion in SOD1G93A mice with b.i.d. dosing (RD-2019-00111); assay type: in vivo, SOD1G93A mouse; conditions: 5 consecutive days
Procedure: Dosing was examined in the SOD1G93A mouse model of ALS, the most commonly used rodent ALS model (RD-2019-00111). Twice daily dosing (b.i.d.) was examined after 5 consecutive dosing days. Microglia were depleted in the cortex by approximately 25% and 75% following treatment with 50 mg/kg and 80 mg/kg BLZ945. BLZ945 dosed b.i.d. at 10 mg/kg was not effective (FIG. 10 A).
FIG. 10: BLZ945-mediated microglial depletion in the cortex, as assessed by Iba1/Aif-1 immunohistological staining (A) or in spinal cord by qPCR analysis (B) Values are group means±SD (n=3). (C and D) Exposure of BLZ945 in blood and CNS brain and spinal cord 3 hours after the final dose of the study.

## CNC(=O)c1cc(Oc2ccc3nc(N[C@@H]4CCCC[C@H]4O)sc3c2)ccn1 [BLZ945, 4-((2-(((1R,2R)-2-hydroxycyclohexyl)amino)benzo[d]thiazol-6-yl)oxy)-N-methylpicolinamide]
[1]; human
  mean accumulation index (Racc): 1.07-1.24
[1]; human, po, 150 mg
  AUC(0-t): 102 µg·h/mL
  Cmax: 6950 ng/mL
[1]; human, po, 300 mg
  AUC(0-t): 203 µg·h/mL
  Cmax: 13900 ng/mL
[1]; human, po, 600 mg
  AUC(0-t): 378 µg·h/mL
  Cmax: 24500 ng/mL
[1]; human, po, 800 mg
  AUC(0-t): 413 µg·h/mL
  Cmax: 22700 ng/mL
[1]; human, po, 1200 mg
  AUC(0-t): 599 µg·h/mL
  Cmax: 32700 ng/mL
[1]; po
  absorption: rapid absorption
[2]
  tumor growth inhibition: not either of the single agent groups dosed with BLZ945 or anti-PD-1 resulted in a statistically significant tumor growth inhibition
[3]; 4 days on/10 days off compared with Q1W dosing regimen, single agent
  AST and ALT elevations: better controlled
[3]; 4 days on/10 days off schedule
  ALT/AST levels: recover to baseline before next dose
[3]; Q1W dose, even at lowest dose of 300 mg
  AST and ALT levels: spikes above the G2 level
[4]; 7 mg/kg
  microglial depletion: ineffective
[4]; 20 mg/kg
  microglial depletion: ineffective
[4]; 60 mg/kg
  microglial reduction: 25%
[4]; 100 mg/kg
  microglial reduction: 60%
[4]; then 3 days washout
  microglia brain repopulation: ~80 % of vehicle
[4]; then 7 days washout
  microglia brain repopulation: complete repopulation
[4]; day 2
  microglia depleted in the cortex: approximately 50%
[4]; day 5
  microglia depleted in the cortex: approximately 90%
[4]; 169 mg/kg
  microglial reduction: 100%
[5]; 169 mg/kg qd 5 days, then 3 or 7 days washout
  drop of exposures following washout: more than 1000 fold
[5]; 169 mg/kg qd, consecutive dosing days
  accumulation with daily dosing (blood and brain exposures): lack of accumulation
[5]; 7 to 169 mg/kg, 5 consecutive days
  dose dependence of blood and brain exposures: linear increases in both blood and brain exposures with increased doses
[5]; mouse, brain relative to blood, 169 mg/kg qd, 1-5 days, 3 hours after final dose
  Kp at 3 h: ~0.5
[5]; mouse, brain relative to blood, four lowest doses (7-100 mg/kg), 5 consecutive days
  Kp at 5 days: ~0.3
[5]; mouse, brain relative to blood, highest dose (169 mg/kg), 5 consecutive days
  Kp at 5 days: ~0.55
[6]; 10 mg/kg b.i.d.
  microglia depletion in the cortex: not effective
  reduction of microglial markers in spinal cord (qPCR): small but non-significant effect
[6]; 50 mg/kg b.i.d.
  microglia depleted in spinal cord (qPCR of microglial markers): approximately 55%
  microglia depleted in the cortex: approximately 25%
[6]; 80 mg/kg b.i.d.
  microglia depleted in spinal cord (qPCR of microglial markers): ~85%
  microglia depleted in the cortex: ~75%
